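Compound exposure: 48 hours, 5 concentrations, 96-well plates. GI50 marks 50% less growth. At the TGI there is no net growth.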

Common to all, as to assay: NCI tumour cell line growth inhibition, 48 h
Assay [1] deals with OVCAR-3 ovarian.
In assay [2] the test system is SN12C renal.
In assay [3] the test system is ACHN renal.
Assay [4] deals with UACC-62 melanoma.
Assay [5] deals with SW-620 colon.
The test system of assay [6] is SF-295 CNS.
The test system of assay [7] is NCI-H23 lung.
The test system of assay [8] is KM12 colon.

For the compound `O=C(CC1(O)C(=O)Nc2ccccc21)c1ccc(F)cc1` (configuration not stated), the TGI in assay [1], in assay [2], in assay [3], in assay [4], in assay [5] and in assay [6] was over 100 µM each time. In assay [7], this compound displayed a TGI of over 100 µM.
Turning to `Cn1c(=O)c2ccc(-c3ccc(Br)cc3)nc2n(C)c1=O`, the TGI in assay [1], in assay [8], in assay [4], in assay [5], in assay [6] and in assay [7] was over 100 µM throughout.
Take `Cc1cc(=O)n2c3c(c4c(cc13)c(CO)cc(=O)n4C)OC2`: the TGI is 40.1 µM in assay [1]; over 100 µM in assay [2]; 63.5 µM in assay [3]; over 100 µM in assay [8]; 25.9 µM in assay [4]; over 100 µM in assay [5]. Further, the TGI in assay [6] is over 100 µM; in assay [7], 48.1 µM.
Regarding `O=C(N/C(=C\c1ccc(/C=C(\NC(=O)c2ccccc2)c2nc3cc(Cl)ccc3[nH]2)cc1)c1nc2cc(Cl)ccc2[nH]1)c1ccccc1`, the TGI in assay [1] is over 100 µM; in assay [2], over 100 µM; in assay [3], over 100 µM; in assay [8], 88.7 µM; in assay [4], 65 µM; in assay [5] it was over 100 µM. Besides, the TGI in assay [6] and in assay [7] was over 100 µM in each case.
For the compound `CC1(c2cccc(N)c2)C2C(=O)NC(=O)C1C(=O)NC2=O` (configuration not stated), the TGI was 57.1 µM in assay [1]; 97.7 µM in assay [2]; 78.5 µM in assay [3]; over 100 µM in assay [8]; over 100 µM in assay [4]; over 100 µM in assay [5]. Also, the TGI in assay [6] is 58.8 µM; in assay [7], 48.5 µM.
Take `C/C(=N\NS(=O)(=O)c1ccc(C)cc1)c1cc2ccccc2n1C`: the TGI was 57.7 µM in assay [2]; over 100 µM in assay [3]; over 100 µM in assay [8]; over 100 µM in assay [4]; over 100 µM in assay [5]; over 100 µM in assay [6]. In addition, in assay [7], the TGI is over 100 µM.
On to `CC(=O)[CH-]C(=O)c1ccccc1.CC(=O)[CH-]C(=O)c1ccccc1.CC1(C)OCC(C2OC3OC(C)(C)OC3C2[O-])O1.CC1(C)OCC(C2OC3OC(C)(C)OC3C2[O-])O1.[Ti+4]` (configuration not stated), for which the GI50 in assay [2] is 17.7 µM; in assay [3] it was 16.4 µM; in assay [8], 13.2 µM; in assay [4], 16.9 µM; in assay [5], 10.7 µM; in assay [6], 13.8 µM. Further, the GI50 in assay [7] is 18.2 µM. For the same compound, the TGI in assay [2] is 43.4 µM; in assay [3], 38.1 µM; in assay [8] it was 42.8 µM; in assay [4], 39.6 µM; in assay [5] it was 29.7 µM; in assay [6] it was 30.8 µM. Moreover, the TGI in assay [7] was found to be 38.3 µM.
Regarding `N.N.O=P([O-])([O-])CN(CCN(CP(=O)([O-])[O-])CP(=O)([O-])[O-])CP(=O)([O-])[O-].[Pt+2]`, the GI50 in assay [1], in assay [2], in assay [3], in assay [8], in assay [4] and in assay [5] was over 100 µM in each case. Further, the GI50 in assay [6] and in assay [7] was over 100 µM each time. In addition, the TGI in assay [1], in assay [2], in assay [3], in assay [8], in assay [4] and in assay [5] was over 100 µM in each case. Besides, the TGI in assay [6] and in assay [7] was over 100 µM in each case.
Regarding `CCOC(=O)C1=C(C)N(Cc2ccccc2)C(=O)C1CC#N` (configuration not stated), the TGI in assay [1], in assay [2], in assay [3], in assay [8], in assay [4] and in assay [5] was over 100 µM in each case. For the same compound, the TGI in assay [6] and in assay [7] was over 100 µM throughout.
For the compound `CSc1nc2c(nc(N)n2C2OC(COC(C)=O)C(OC(C)=O)C(OC(C)=O)C2OC(C)=O)c(=O)n1C` (configuration not stated), the TGI in assay [1], in assay [2], in assay [3], in assay [8], in assay [4] and in assay [5] was over 100 µM each time. The TGI in assay [6] and in assay [7] was over 100 µM each time.
With `CC(=O)[CH-]C(=O)c1ccccc1.CC(=O)[CH-]C(=O)c1ccccc1.CC[C@H](/C=C/C(C)[C@H]1CCC2[C@@H]3CC=C4C[C@@H]([O-])CC[C@]4(C)C3CC[C@@]21C)C(C)C.CC[O-].[Ti+4]` (some centres not stated), the GI50 in assay [1] is over 100 µM; in assay [2] it was over 100 µM; in assay [3], 16.2 µM; in assay [8], over 100 µM; in assay [4] it was over 100 µM; in assay [5] it was over 100 µM. Moreover, the GI50 in assay [6] and in assay [7] was over 100 µM each time. Besides, the TGI in assay [1], in assay [2], in assay [3], in assay [8], in assay [4] and in assay [5] was over 100 µM each time. In addition, the TGI in assay [6] and in assay [7] was over 100 µM throughout.
Take `N#Cc1cc([N+](=O)[O-])ccc1NC(=O)C(F)(F)F`: the TGI is over 100 µM in assay [1]; over 100 µM in assay [2]; over 100 µM in assay [3]; over 100 µM in assay [8]; over 100 µM in assay [4]; over 55.8 µM in assay [5]. Also, the TGI in assay [6] and in assay [7] was over 100 µM each time.
Take `Cc1ccc(NC(=O)CC/C(CC(=O)C(C)(C)C)=N/NC(=O)C[N+](C)(C)C)cc1C`: the TGI in assay [1], in assay [2], in assay [3], in assay [8], in assay [4] and in assay [5] was over 100 µM throughout. Also, the TGI in assay [6] and in assay [7] was over 100 µM in each case.

The values above are taken from PubChem BioAssay (NCI).
